“And” between values parts separate entries of the source, which are not always exact repeats. Equal values may be shown once.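 Grown in 96-well plates, cells were treated for 48 hours with each compound at five concentrations. Insufficient inhibition: endpoint recorded as highest concentration tested. At the GI50, growth is halved. TGI: total growth inhibition.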

Data on nine compounds can be found in PubChem BioAssay (NCI).

Test systems include SW-620 colon; RPMI-8226 leukemia; HOP-92 NSCLC; MCF7 breast; MALME-3M melanoma; SNB-75 CNS; UO-31 renal; OVCAR-4 ovarian.
Holding throughout (experiment): NCI-60 cell line screen, 48 h

Turning to `COc1c(C)cnc(Cn2cnc3c(Cl)nc(N)nc32)c1C`, the GI50 in the assay on SW-620 colon was 0.113 µM; in the assay with RPMI-8226 leukemia it was 0.333 µM; in the assay on HOP-92 NSCLC it was 0.467 µM; in the assay on MCF7 breast, 0.0402 µM; in the assay on MALME-3M melanoma it was 0.38 µM; in the assay with SNB-75 CNS it was 3.13 µM. Besides, the GI50 is 0.141 µM in the assay with UO-31 renal and 7.17 µM in the assay with OVCAR-4 ovarian. For the same compound, the TGI with SW-620 colon is greater than 100 µM; in the assay with RPMI-8226 leukemia it was greater than 100 µM; with HOP-92 NSCLC it was 2.8 µM; with MCF7 breast, greater than 100 µM; in the assay on MALME-3M melanoma it was 58.3 µM; in the assay on SNB-75 CNS it was greater than 100 µM. The results for the TGI in the assay with UO-31 renal and with OVCAR-4 ovarian were greater than 47.4 µM and greater than 100 µM, respectively.
As for `Cc1nc2cc(NC(=O)CN3CCN(CCN4C(=O)c5cccc6cccc(c56)C4=O)CC3)ccc2s1`, the GI50 in the assay with SW-620 colon was 2.6 µM; with RPMI-8226 leukemia, 2.91 µM; in the assay on HOP-92 NSCLC it was 2.13 µM; with MCF7 breast, 4.08 µM; in the assay with MALME-3M melanoma it was 4.99 µM; with SNB-75 CNS it was 3.51 µM. For the same compound, the GI50 in the assay with UO-31 renal is 3.07 µM; in the assay with OVCAR-4 ovarian it was 5.33 µM. In addition, the TGI in the assay on SW-620 colon is 24.3 µM; in the assay on RPMI-8226 leukemia, 15.2 µM; in the assay with HOP-92 NSCLC, 9.05 µM; in the assay on MCF7 breast it was 15.5 µM; in the assay on MALME-3M melanoma, greater than 100 µM; in the assay with SNB-75 CNS, 21.4 µM. Also, the TGI with UO-31 renal and in the assay on OVCAR-4 ovarian was greater than 100 µM each time.
As for `COC(=O)[C@@H](C)C[C@H](Cc1ccccc1)NC(=O)c1cccc([C@@H](C[C@H](C(C)C)N(C)C(=O)[C@@H](NC(=O)[C@H]2CCCCN2C)C(C)C)OC(C)=O)n1`, the GI50 in the assay with SW-620 colon, in the assay with RPMI-8226 leukemia, with HOP-92 NSCLC, in the assay on MCF7 breast, with MALME-3M melanoma and in the assay with SNB-75 CNS was less than 0.00167 µM throughout. The GI50 with UO-31 renal was 0.0127 µM; with OVCAR-4 ovarian, 0.00477 µM. Further, the TGI in the assay with SW-620 colon is greater than 16.7 µM; in the assay on RPMI-8226 leukemia, greater than 16.7 µM; in the assay with HOP-92 NSCLC, 0.114 µM; in the assay on MCF7 breast, greater than 16.7 µM; in the assay on MALME-3M melanoma it was greater than 16.7 µM; in the assay on SNB-75 CNS, greater than 16.7 µM. Besides, the TGI in the assay on UO-31 renal and with OVCAR-4 ovarian was greater than 16.7 µM in each case.
Consider `C#Cc1cccc(NC(=O)Nc2cccc(NC(=O)CCl)c2)c1`, for which the GI50 in the assay with SW-620 colon is 16.9 µM; in the assay with RPMI-8226 leukemia it was 12.5 µM; with HOP-92 NSCLC, greater than 82.5 µM; in the assay on MCF7 breast, 21.7 µM; with MALME-3M melanoma, 20.7 µM; with SNB-75 CNS, 8.67 µM. For the same compound, the GI50 in the assay with UO-31 renal is greater than 82.5 µM; in the assay with OVCAR-4 ovarian, 12 µM. The TGI in the assay on SW-620 colon is 37.3 µM; in the assay on RPMI-8226 leukemia it was 48.3 µM; in the assay with HOP-92 NSCLC, greater than 82.5 µM; with MCF7 breast, greater than 82.5 µM; in the assay with MALME-3M melanoma it was greater than 82.5 µM; in the assay with SNB-75 CNS, greater than 82.5 µM. Also, the TGI is greater than 82.5 µM with UO-31 renal and 29.5 µM with OVCAR-4 ovarian.
In the case of `Cc1ccc(SCN2CCCCC2)cc1` (tested in a mixture with another compound), the TGI in the assay on SW-620 colon came to 56.5 µM; in the assay on RPMI-8226 leukemia it was 29.5 µM; in the assay with HOP-92 NSCLC it was 31 µM; with MCF7 breast it was 59.4 µM; in the assay on MALME-3M melanoma, 31.3 µM; with SNB-75 CNS, 22.5 µM. For the same compound, the TGI in the assay with UO-31 renal worked out at 30.2 µM; in the assay on OVCAR-4 ovarian, 43.8 µM.
On to `CCCCc1ccc(C(N)=O)nc1`, for which the GI50 in the assay with SW-620 colon, with RPMI-8226 leukemia, in the assay with HOP-92 NSCLC, in the assay with MCF7 breast, with MALME-3M melanoma and in the assay on SNB-75 CNS was greater than 100 µM throughout. The GI50 in the assay on UO-31 renal and in the assay on OVCAR-4 ovarian was greater than 100 µM each time. The TGI in the assay with SW-620 colon, with RPMI-8226 leukemia, in the assay on HOP-92 NSCLC, in the assay on MCF7 breast, in the assay on MALME-3M melanoma and in the assay on SNB-75 CNS was greater than 100 µM throughout. Also, the TGI in the assay with UO-31 renal and in the assay on OVCAR-4 ovarian was greater than 100 µM throughout.
For the compound `CC(CCC/C=C/CCCN(C)C(=N)N)CC(C)C1OC(=O)C(C)C(O)/C=C/C(C)C(O)C(C)C(O)C(C)C(O)CCCC(O)CC2(O)OC(CC(OC(=O)CC(=O)O)CC(O)CC(O)C(C)C(O)/C=C/C=C/C1C)CC(O)C2O` (stereo unspecified), the GI50 with SW-620 colon was 2.02 µM and 9.83 µg/mL; with RPMI-8226 leukemia it was 2.71 µM and 9.09 µg/mL; with HOP-92 NSCLC, 1.92 µM and 9.74 µg/mL; with MCF7 breast it was 1.79 µM and 3.53 µg/mL; in the assay on MALME-3M melanoma, 2.37 µM and 2.57 µg/mL; in the assay on SNB-75 CNS it was 2.05 µM and 1.34 µg/mL. The GI50 is 3.36 µM and 14.5 µg/mL in the assay on UO-31 renal; 2.65 µM and 7.59 µg/mL in the assay on OVCAR-4 ovarian. Further, the TGI is 3.7 µM and 21.7 µg/mL in the assay with SW-620 colon; 10.5 µM and 28 µg/mL in the assay with RPMI-8226 leukemia; 6.57 µM and 20.1 µg/mL with HOP-92 NSCLC; 3.67 µM and 14 µg/mL with MCF7 breast; 5 µM and 11.7 µg/mL in the assay on MALME-3M melanoma; 4.94 µM and 7.44 µg/mL in the assay with SNB-75 CNS. The TGI is 8.6 µM and 26.1 µg/mL in the assay with UO-31 renal; 6.66 µM and 18.4 µg/mL in the assay on OVCAR-4 ovarian.
Consider `CCCCCCn1c(=N)n(CC(O)COc2cccc(C)c2)c2ccccc21` (stereo unspecified), for which the GI50 with SW-620 colon is 1.82 µM; with RPMI-8226 leukemia, 1.98 µM; in the assay with HOP-92 NSCLC it was 2.2 µM; with MCF7 breast, 1.76 µM; with MALME-3M melanoma, 1.92 µM; in the assay on SNB-75 CNS it was 2.54 µM. Moreover, the GI50 was 3.88 µM in the assay on UO-31 renal and 2.15 µM with OVCAR-4 ovarian. Also, the TGI amounted to 4.04 µM in the assay with SW-620 colon; 4.56 µM in the assay with RPMI-8226 leukemia; 8.02 µM in the assay with HOP-92 NSCLC; 3.55 µM in the assay on MCF7 breast; 3.66 µM in the assay on MALME-3M melanoma; 12.2 µM in the assay on SNB-75 CNS. In addition, the TGI worked out at 15.4 µM in the assay on UO-31 renal and 6.27 µM in the assay on OVCAR-4 ovarian.
Turning to `COc1ccc(/C=C2\CC(C)CC3C2=NN(C(C)=O)C3c2ccc(OC)c(OC)c2)cc1OC` (stereo unspecified), the GI50 in the assay with SW-620 colon was 26.1 µM; in the assay with RPMI-8226 leukemia it was 8.19 µM; in the assay with HOP-92 NSCLC, 13.8 µM; in the assay on MCF7 breast, 14.4 µM; with MALME-3M melanoma, 20.1 µM; in the assay with SNB-75 CNS, 24.8 µM. Moreover, the GI50 was 13.3 µM in the assay on UO-31 renal and 19.7 µM in the assay on OVCAR-4 ovarian. In addition, the TGI with SW-620 colon came to 67.1 µM; in the assay with RPMI-8226 leukemia it was 32 µM; in the assay with HOP-92 NSCLC it was 33.5 µM; in the assay on MCF7 breast, 30.6 µM; with MALME-3M melanoma it was 36.3 µM; with SNB-75 CNS, 54.3 µM. For the same compound, the values for the TGI in the assay with UO-31 renal and with OVCAR-4 ovarian were 29.6 µM and 84.3 µM, respectively.
